Reference: paper PMC6616128, “Liquiritin, as a Natural Inhibitor of AKR1C1, Could Interfere With the Progesterone Metabolism” (Frontiers in Physiology, 2019)
Residue numbers refer to the chain shown, from its start. Read-outs that look alike come from different tables or passages of the source.

Tests used:
[1] = molecular target: T1, AKR1C1 (Homo sapiens, UniProt Q04828); assay: Enzyme activity (NADPH) assay with s-tetralol, recombinant GST-AKR1C1; assay type: biochemical; design: made in house; host or cells: Escherichia coli JM109; conditions: for enzyme activity: CON 192.295568; for inhibition at 2 µM: read-out: % inhibition;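 as to all read-outs here: GST-fused AKR1C1 expressed in E. coli and purified by glutathione affinity, control wells received DMSO instead of compound, duplicate samples from a single experiment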
T1 sequence (Q04828 1-323): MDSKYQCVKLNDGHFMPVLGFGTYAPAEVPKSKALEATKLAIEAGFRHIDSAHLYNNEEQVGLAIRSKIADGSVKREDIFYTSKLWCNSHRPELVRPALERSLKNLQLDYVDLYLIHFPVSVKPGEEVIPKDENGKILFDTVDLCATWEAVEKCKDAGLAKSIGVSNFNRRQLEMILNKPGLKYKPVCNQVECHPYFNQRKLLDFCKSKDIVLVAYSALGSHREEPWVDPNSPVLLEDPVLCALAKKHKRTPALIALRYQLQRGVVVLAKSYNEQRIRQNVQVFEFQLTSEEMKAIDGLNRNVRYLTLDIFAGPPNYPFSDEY
Method: GST-tagged recombinant AKR1C isoforms expressed JM109 was grown in Luria-Bertani broth (100 μg⋅ml-1 ampicillin, pH = 7.0) at 37°C with orbital shaking at 220 rpm. When cells achieved an OD600 nm between 0.4 and 0.6, 0.3 mM final concentration of isopropyl β-D-1-thiogalactopyranoside (IPTG) was added to the cultures and incubated for an additional 12 h at 25°C. Cells were harvested by centrifugation at 8000 g for 10 min, and the cell pellets were stored at -80°C for storage. The pellets were resuspended in 1 × PBS, pH = 7.4 and lysed by ultrasonication at ice-cold temperature using an UH-03 union instrument. The purification of glutathione-S-transferase (GST)-fusion AKR1C1, AKR1C2, and AKR1C3 were then carried out using ÄKTA systems from GE Healthcare as described in Handbook. The recombinant proteins were eluted in 50 mM Tris–HCl (pH = 8.0) with 20 mM reduced glutathione, fresh preparedly. Protein concentrations were determined using the Bradford protein assay kit. All proteins were aliquoted and stored at -80°C containing 20% glycerol.
(§1) To screen for the indicated inhibitor, the assay mixture was added with additional DMSO or 2 μM compounds. […] The inhibition patterns were determined by fitting initial velocity and inhibitor concentration into inhibition models using Graphpad Prism 6.0. All inhibition data were obtained from single experiments, with samples conducted in duplicate.
Firstly, we overexpressed recombinant human AKR1C in E. coli in the form of a GST-fusion protein, and then purified it by affinity chromatography on glutathione-Sepharose.
To screen for the inhibitors of AKR1C1, we developed a readily accessible indirect NADPH generating-based assay that can be used for high-throughput inhibitors screening. […] Wells were included containing enzyme and no inhibitor or 2 μM inhibitor.

[2] = molecular target: T2, recombinant AKR1C2 (Homo sapiens, UniProt P52895); assay: Enzyme activity (NADPH) assay with s-tetralol, recombinant GST-AKR1C2; assay type: biochemical; conditions: GST-AKR1C2; S-tetralol/NADP+
T2 construct: made in house; host or cells: Escherichia coli JM109
T2 sequence (P52895 1-323): T1 sequence (Q04828 1-323) with T38V, R47H, L54V, C87S, V151M, R170H, Q172L
Method: (§2) Protein concentrations were determined using the Bradford protein assay kit.
as §1
(§3) Each experiment was repeated three times and the differences among means were significant determined by Student t-text (^∗p < 0.05; ^∗∗p < 0.01; ^∗∗∗p < 0.001).

[3] = molecular target: T3, recombinant AKR1C3 (Homo sapiens, UniProt P42330); conditions: GST-AKR1C3; S-tetralol/NADP+
T3 sequence (P42330 1-323): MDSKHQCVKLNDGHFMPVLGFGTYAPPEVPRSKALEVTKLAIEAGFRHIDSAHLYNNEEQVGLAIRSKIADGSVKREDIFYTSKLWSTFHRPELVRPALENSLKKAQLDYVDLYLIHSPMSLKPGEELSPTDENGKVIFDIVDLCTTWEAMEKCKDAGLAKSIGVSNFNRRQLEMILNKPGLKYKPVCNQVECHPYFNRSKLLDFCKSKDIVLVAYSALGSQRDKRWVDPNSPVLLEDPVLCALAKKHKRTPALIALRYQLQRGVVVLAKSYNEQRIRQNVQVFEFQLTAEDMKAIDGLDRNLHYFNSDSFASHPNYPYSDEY
Method: as §2, §1, §3

[4] = 2 μM compound, Supplementary Table 1
[5] = 2 μM compound, Supplementary Table 1, CON 0.0122
[6] = 2 μM compound, Supplementary Table 1, CON = 1
[7] = 2 μM compound, Supplementary Table 1, CON = 1, read-out: ratio (activity relative to CON)

Compound	% inhibition [1, 4]	slope [1, 5]	enzyme activity [1, 4]	ratio (activity relative to CON) [1, 6]	remaining activity at 2 µM [1, 7]	inhibition at 2 µM [1, 4]	further results
CC1(C)O[C@H]1COc1c2ccoc2cc2oc(=O)ccc12 [Oxypeucedanin]		0.0122	192.3856 nmol/min/mg		100%	-0.05%	
C[C@H]1CC[C@@H]2N(C1)C[C@H]1[C@@H]3C[C@H]4[C@@H](C[C@H](O)[C@H]5C[C@@H](O)CC[C@@]54C)[C@@H]3CC[C@@H]1[C@]2(C)O [Peimine]	4.66%	0.0116	183.3338 nmol/min/mg	0.9534			
COc1cc(C(=O)O[C@H]2[C@@H]3C=CO[C@@H](O[C@@H]4O[C@H](CO)[C@@H](O)[C@H](O)[C@H]4O)[C@@H]3[C@@]3(CO)O[C@@H]23)ccc1O [Picroside Ⅱ]		0.006957	109.658 nmol/min/mg		57%	43%	
COc1c2c(cc3oc(CO[C@@H]4O[C@H](CO)[C@@H](O)[C@H](O)[C@H]4O)cc(=O)c13)O[C@H](C(C)(C)O)C2 [Prim-O-glucosylcimifugin]	-1.55%	0.0124	195.2678 nmol/min/mg	1.0155			
O=c1ccc2cc3ccoc3cc2o1 [Psoralen]		0.0116	182.8834 nmol/min/mg		95.1%	4.89%	
CC(C)=CCc1cc2c(cc1O)oc(=O)c1c3ccc(O)cc3oc21 [Psoralidin]	2.25%	0.0119	187.9723 nmol/min/mg	0.9775			
C[C@@H]1O[C@@H](Oc2c(-c3ccc(O)c(O)c3)oc3cc(O)cc(O)c3c2=O)[C@H](O)[C@H](O)[C@H]1O [Quercitrin]		0.0114	180.0013 nmol/min/mg		93.6%	6.39%	
O[C@H]1CCCc2ccccc21 [S-tetralol, S-(+)-1,2,3,4-tetrahydro-1-naphthol]							Kcat [2]: 0.0962 s⁻¹; Km [2]: 103 µM; Vmax [2]: 94.58 nmol/min/mg; Kcat ([1]; GST-AKR1C1, S-tetralol/NADP+): 0.2065 s⁻¹; Km ([1]; GST-AKR1C1, S-tetralol/NADP+): 23.5 µM; Vmax ([1]; GST-AKR1C1, S-tetralol/NADP+): 203.10 nmol/min/mg; catalytic efficiency ([1]; recombinant AKR1C1): 0.53 min^-1/μM^-1; Kcat [3]: 0.553 s⁻¹; Km [3]: 851 µM; Vmax [3]: 543.90 nmol/min/mg
C[C@H]1O[C@@H](O[C@H]2CC[C@@]3(C)[C@@H](CC[C@]4(C)[C@@H]3C=C[C@]35OC[C@@]6(CCC(C)(C)C[C@H]63)[C@@H](O)C[C@]54C)[C@]2(C)CO)[C@H](O)[C@@H](O[C@@H]2O[C@H](CO)[C@@H](O)[C@H](O)[C@H]2O)[C@H]1O [Saikosaponin A]		0.0115	181.6675 nmol/min/mg		94.5%	5.53%	
C[C@H]1O[C@@H](O[C@H]2CC[C@@]3(C)[C@@H](CC[C@]4(C)[C@@H]3C=C[C@]35OC[C@@]6(CCC(C)(C)C[C@H]63)[C@H](O)C[C@]54C)[C@]2(C)CO)[C@H](O)[C@@H](O[C@@H]2O[C@H](CO)[C@@H](O)[C@H](O)[C@H]2O)[C@H]1O [Saikosaponin D]	5.41%	0.0115	181.8927 nmol/min/mg	0.9459			
CC(C)=CC[C@@H](O)C1=CC(=O)c2c(O)ccc(O)c2C1=O [Shikonin]		0.0134	210.4443 nmol/min/mg		109%	-9.44%	
O=C([O-])C(O)Cc1ccc(O)c(O)c1.[Na+] (stereo not drawn) [Sodium Danshensu]	14%	0.0105	165.3652 nmol/min/mg	0.86			
COc1c(O)cc(O)c2c(=O)cc(-c3ccccc3)oc12 [Wogonin]		0.00272	42.8725 nmol/min/mg		22.3%	77.7%	remaining activity at 2 µM ([1]; 2 μM compound, Figure 1A, read-out: % Enzyme Activity): 22.3%; remaining activity at 2 µM ([1]; 2 μM compound, text on Figure 1A, read-out: inhibitory effect over AKR1C1 enzyme activity (% inhibition)): 22.3%
COc1c(O[C@@H]2O[C@H](C(=O)O)[C@@H](O)[C@H](O)[C@H]2O)cc(O)c2c(=O)cc(-c3ccccc3)oc12 [Wogonoside]	-8.88%	0.0133	209.3635 nmol/min/mg	1.0888			
Echinacoside	-7.12%	0.0131	205.9859 nmol/min/mg	1.0712			
Ginkgolide B	34.68%	0.007969	125.6001 nmol/min/mg	0.6532			
Ginkgolide C	31.9%	0.008309	130.9591 nmol/min/mg	0.681			
Hydroxysafflor yellow A	27.82%		138.7951 nmol/min/mg	0.7218			slope [1]: 0.008806
Pseuginsenoside F11	4.75%	0.0116	183.1536 nmol/min/mg	0.9525			

More lines, main results first:

% inhibition [1, 4]	slope [1, 5]	enzyme activity [1, 4]	ratio (activity relative to CON) [1, 6]	remaining activity at 2 µM [1, 7]	inhibition at 2 µM [1, 4]	Compound	further results
40.77%	0.007226	113.8912 nmol/min/mg	0.5923			COc1cc(C(=O)OCCCCN=C(N)N)cc(OC)c1O.Cl [Leonurine hydrochloride]	
	0.009429	148.6125 nmol/min/mg		77.3%	22.7%	O=c1c2cc(O)c(O)cc2oc2cc(O)c([C@@H]3O[C@H](CO)[C@@H](O)[C@H](O)[C@H]3O)c(O)c12 [Mangiferin]	
	0.0127	200.1315 nmol/min/mg		104%	-4.07%	COc1ccc(-c2cc(=O)c3c(OC)c(OC)c(OC)c(OC)c3o2)cc1OC [Nobiletin]	
	0.0133	209.2284 nmol/min/mg		109%	-8.81%	COc1cc2c(c(OC)c1OC)-c1c(cc(OC)c(OC)c1OC)C[C@H](C)[C@H](C)C2 [Schisandrin A]	
-12.27%	0.0137	215.8934 nmol/min/mg	1.1227			COc1cc2c(c(OC)c1OC)-c1c(cc(OC)c(OC)c1OC)C[C@](C)(O)[C@@H](C)C2 [Schisandrol A]	
	0.0137	215.6683 nmol/min/mg		112%	-12.2%	COc1cc2c(c(OC)c1OC)-c1c(cc3c(c1OC)OCO3)C[C@H](C)[C@@](C)(O)C2 [Schisandrol B]	
-23.91%	0.0151	238.2754 nmol/min/mg	1.2391			COc1cc2c(c(OC)c1OC)-c1c(cc3c(c1OC)OCO3)CC(C)C(C)C2 (stereo not drawn) [Schizandrin B]	
	0.0133	209.3185 nmol/min/mg		109%	-8.85%	COc1ccc(-c2cc(=O)c3c(OC)c(OC)c(OC)c(OC)c3o2)cc1 [Tangeretin]	
	0.007214	113.7111 nmol/min/mg		59.1%	40.9%	COc1ccc2c(c1)CC=C(CO)c1cc3c(cc1-2)OCO3 [Tenuifolin]	
-7.87%	0.0132	207.427 nmol/min/mg	1.0787			(+)-Catechin hydrate	
31.38%	0.008371	131.9499 nmol/min/mg	0.6862			Salvianolic acid B	
-8.57%	0.0132	208.778 nmol/min/mg	1.0857			Schisantherin A	
